Data from patent US20240360178A1, “MACROCYCLIC IMMUNOMODULATORS” (Bristol-Myers Squibb Company, priority 2021, published 2024).
Positions of bridges follow the written chain, without caps; N, C: chain ends. Non-standard residues stand in square brackets, D forms with d. Residues, ends and D or L forms follow the SMILES beside them. *: point of attachment. Bip(2'-Me) = Cc1ccccc1-c1ccc(C[C@H](N)C(=O)O)cc1; Phe(4-COOH) = N[C@@H](Cc1ccc(C(=O)O)cc1)C(=O)O; Bip = N[C@@H](Cc1ccc(-c2ccccc2)cc1)C(=O)O; Phe(3-Cl) = N[C@@H](Cc1cccc(Cl)c1)C(=O)O; Phe(3-Me) = Cc1cccc(C[C@H](N)C(=O)O)c1; NMeF = CN[C@@H](Cc1ccccc1)C(=O)O; 4Pal = N[C@@H](Cc1ccncc1)C(=O)O; Cha = N[C@@H](CC1CCCCC1)C(=O)O; NMeS = CN[C@@H](CO)C(=O)O; dPip = O=C(O)[C@H]1CCCCN1; Carboxymethyl = O=C(O)C*; NMeA = CN[C@@H](C)C(=O)O; Nle = CCCC[C@H](N)C(=O)O; Orn = NCCC[C@H](N)C(=O)O; Dab = NCC[C@H](N)C(=O)O; Nva = CCC[C@H](N)C(=O)O; Dap = NC[C@H](N)C(=O)O; NBuGly = CCCCNCC(=O)O; Sar = CNCC(=O)O

Target: T1, human PD-1 (Jurkat-PD-1 cells) / PE-labeled human PD-L1-Ig (Homo sapiens, UniProt Q15116)
T1 construct: expressed in transfected cells; host or cells: Jurkat cell line over-expressing human PD-1
Assay: Jurkat-PD-1 Cell Binding High-Content Screening Assay (CBA); Jurkat hPD1-PDL1 assay
Details: Jurkat cell line over-expressing human PD-1; PE-labeled PD-L1-Ig 20 nM final; compound incubated 2 hours at 37° C.; read-out: Jurkat HPD1-PDL1 IC50
In short: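 Cell binding by imaging: Jurkat line stably over-expressing human PD-1, compound pre-exposure 2 h at 37° C, PE-conjugated PD-L1-Ig 20 nM final, medium DMEM containing 10% FCS.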

T1 sequence (Q15116 25-288): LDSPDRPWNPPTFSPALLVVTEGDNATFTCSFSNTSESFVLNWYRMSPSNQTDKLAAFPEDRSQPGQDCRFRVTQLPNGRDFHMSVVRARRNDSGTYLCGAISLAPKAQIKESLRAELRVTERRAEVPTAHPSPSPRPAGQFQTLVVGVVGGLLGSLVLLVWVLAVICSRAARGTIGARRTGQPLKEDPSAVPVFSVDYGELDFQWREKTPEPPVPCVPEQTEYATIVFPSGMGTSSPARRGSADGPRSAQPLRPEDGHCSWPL

Point of comparison: `CC(C)C[C@@H]1NC(=O)[C@H](Cc2c[nH]c3ccccc23)NC(=O)[C@H](CC(=O)O)NC(=O)[C@H](Cc2ccc(O)cc2)NC(=O)[C@H](Cc2ccccc2)NC(=O)CSC[C@@H](C(=O)NCC(N)=O)NC(=O)[C@H](CO)NC(=O)[C@H](C(C)C)NC(=O)[C@H](CC(C)C)NC(=O)[C@H](CC(N)=O)NC(=O)[C@H](CO)N(C)C(=O)[C@H](C)N(C)C(=O)[C@H](C(C)C)NC(=O)[C@H](Cc2ccc(-c3ccccc3)cc2)NC1=O` [Example 1084] ({CH2CO}-FYDWL[Bip]V[NMeA][NMeS]NLVSCG-NH2; thioether N-14), IC50 240 nM. Against it:
- CC(C)C[C@@H]1NC(=O)[C@H](Cc2c[nH]c3ccccc23)NC(=O)[C@H](CC(=O)O)NC(=O)[C@H](Cc2ccc(O)cc2)NC(=O)[C@H](Cc2ccccc2)NC(=O)CSC[C@@H](C(=O)N[C@@H](C)C(N)=O)NC(=O)[C@H](CCC(N)=O)NC(=O)[C@H](C(C)C)NC(=O)[C@H](CC(C)C)NC(=O)[C@H](CC(N)=O)NC(=O)CN(C)C(=O)[C@H](C)N(C)C(=O)[C@H](C(C)C)NC(=O)[C@H](Cc2ccc(-c3ccccc3)cc2)NC1=O [Example 1136] ({CH2CO}-FYDWL[Bip]V[NMeA][Sar]NLVQCA-NH2; thioether N-14) — 2.3-fold higher, 560 nM
- CC(C)C[C@@H]1NC(=O)[C@H](Cc2c[nH]c3ccccc23)NC(=O)[C@H](CC(=O)O)NC(=O)[C@H](Cc2ccc(O)cc2)NC(=O)[C@H](Cc2ccccc2)NC(=O)CSC[C@@H](C(=O)N[C@@H](C)C(N)=O)NC(=O)[C@H](CO)NC(=O)[C@H](C(C)C)NC(=O)[C@H](CC(C)C)NC(=O)[C@H](CC(N)=O)NC(=O)[C@H]2CCCCN2C(=O)[C@H](C)N(C)C(=O)[C@H](C(C)C)NC(=O)[C@H](Cc2ccc(-c3ccccc3)cc2)NC1=O [Example 1038] ({CH2CO}-FYDWL[Bip]V[NMeA][dPip]NLVSCA-NH2; thioether N-14) — 3.4-fold lower, 70 nM
- Cc1cccc(C[C@@H]2NC(=O)[C@H](CC(=O)O)NC(=O)[C@H](Cc3ccc(C(=O)O)cc3)NC(=O)[C@H](Cc3ccc(OCC(=O)O)cc3)NC(=O)CSC[C@@H](C(=O)N[C@@H](C)C(N)=O)NC(=O)[C@H](CO)NC(=O)[C@H](C(C)C)NC(=O)[C@H](CC(C)C)NC(=O)[C@H](CC(N)=O)NC(=O)[C@H]3CCCN3C(=O)[C@H](C)N(C)C(=O)[C@H](C(C)C)NC(=O)[C@H](Cc3ccc(-c4ccccc4)cc3)NC(=O)[C@H](CC(C)C)NC2=O)c1 [Example 1436] ({CH2CO}-Y(Carboxymethyl)[Phe(4-COOH)]D[Phe(3-Me)]L[Bip]V[NMeA][dP]NLVSCA-NH2; thioether N-14) — 6-fold lower, 40 nM
- CC(C)C[C@@H]1NC(=O)[C@H](CCN)NC(=O)[C@H](Cc2ccccc2)N(C)C(=O)[C@H](C)N(C)C(=O)[C@H](CCCNC(=N)N)NC(=O)[C@H](Cc2ccc(-c3ccccc3)cc2)NC(=O)[C@H](C(C)C)NC(=O)[C@H](Cc2c[nH]c3ccccc23)NC(=O)[C@H](CC(=O)O)NC(=O)[C@H](Cc2ccc(O)cc2)NC(=O)[C@H](CCC(N)=O)NC(=O)CSC[C@@H](C(=O)NCC(N)=O)NC(=O)[C@H](CO)NC(=O)[C@H](C(C)C)NC1=O [Example 1309] ({CH2CO}-QYDWV[Bip]R[NMeA][NMeF][Dab]LVSCG-NH2; thioether N-14) — within 1.5-fold, 340 nM
- CC(C)C[C@@H]1NC(=O)[C@H](Cc2cccc(Cl)c2)NC(=O)[C@H](CC(=O)O)NC(=O)[C@H](Cc2ccc(O)cc2)NC(=O)[C@H](Cc2ccccc2)NC(=O)CSC[C@@H](C(=O)N[C@@H](C)C(N)=O)NC(=O)[C@H](CO)NC(=O)[C@H](C(C)C)NC(=O)[C@H](CC(C)C)NC(=O)[C@H](CC(N)=O)NC(=O)CN(C)C(=O)[C@H](C)N(C)C(=O)[C@H](C(C)C)NC(=O)[C@H](Cc2ccc(-c3ccccc3)cc2)NC1=O [Example 1061] ({CH2CO}-FYD[Phe(3-Cl)]L[Bip]V[NMeA][Sar]NLVSCA-NH2; thioether N-14) — 1.7-fold lower, 140 nM
- Cc1ccccc1-c1ccc(C[C@@H]2NC(=O)[C@H](CC(C)C)NC(=O)[C@H](Cc3c[nH]c4ccccc34)NC(=O)[C@H](CC(=O)O)NC(=O)[C@H](Cc3ccc(O)cc3)NC(=O)[C@H](Cc3ccccc3)NC(=O)CSC[C@@H](C(=O)N[C@@H](C)C(N)=O)NC(=O)[C@H](CO)NC(=O)[C@H](C(C)C)NC(=O)[C@H](CC(C)C)NC(=O)[C@H](CC(N)=O)NC(=O)CN(C)C(=O)[C@H](C)N(C)C(=O)[C@H](C(C)C)NC2=O)cc1 [Example 1125] ({CH2CO}-FYDWL[Bip(2'-Me)]V[NMeA][Sar]NLVSCA-NH2; thioether N-14) — 2-fold higher, 470 nM
- CC(C)C[C@@H]1NC(=O)[C@H](Cc2c[nH]c3ccccc23)NC(=O)[C@H](CC(=O)O)NC(=O)[C@H](Cc2ccc(O)cc2)NC(=O)[C@H](CC(N)=O)NC(=O)CSC[C@@H](C(=O)N[C@@H](C)C(N)=O)NC(=O)[C@H](CO)NC(=O)[C@H](C(C)C)NC(=O)[C@H](CC(C)C)NC(=O)[C@H](CC(N)=O)NC(=O)[C@H]2CCCN2C(=O)[C@H](CCCN)NC(=O)[C@H](C(C)C)NC(=O)[C@H](Cc2ccc(-c3ccccc3)cc2)NC1=O [Example 1425] ({CH2CO}-NYDWL[Bip]V[Orn][dP]NLVSCA-NH2; thioether N-14) — within 1.5-fold, 190 nM
- CC(C)C[C@@H]1NC(=O)[C@H](Cc2c[nH]c3ccccc23)NC(=O)[C@H](CC(=O)O)NC(=O)[C@H](Cc2ccc(C(=O)O)cc2)NC(=O)[C@H](CN)NC(=O)CSC[C@@H](C(=O)N[C@@H](C)C(N)=O)NC(=O)[C@H](CO)NC(=O)[C@H](C(C)C)NC(=O)[C@H](CC(C)C)NC(=O)[C@H](CC(N)=O)NC(=O)[C@H]2CCCN2C(=O)[C@H](C)N(C)C(=O)[C@H](C(C)C)NC(=O)[C@H](Cc2ccc(-c3ccccc3)cc2)NC1=O [Example 1390] ({CH2CO}-[Dap][Phe(4-COOH)]DWL[Bip]V[NMeA][dP]NLVSCA-NH2; thioether N-14) — 12-fold lower, 20 nM
- CC(C)C[C@@H]1NC(=O)[C@H](CCCNC(=N)N)NC(=O)[C@H](Cc2ccccc2)N(C)C(=O)[C@H](C)N(C)C(=O)[C@H](CCCNC(=N)N)NC(=O)[C@H](Cc2ccc(-c3ccccc3)cc2)NC(=O)[C@H](C(C)C)NC(=O)[C@H](Cc2c[nH]c3ccccc23)NC(=O)[C@H](CC(=O)O)NC(=O)[C@H](Cc2ccc(O)cc2)NC(=O)[C@H](Cc2ccccc2)NC(=O)CSC[C@@H](C(=O)NCC(N)=O)NC(=O)[C@H](CCCN)NC(=O)[C@H](C(C)C)NC1=O [Example 1338] ({CH2CO}-FYDWV[Bip]R[NMeA][NMeF]RLV[Orn]CG-NH2; thioether N-14) — 2.2-fold lower, 110 nM
- CCCC[C@@H]1NC(=O)[C@H](C(C)C)NC(=O)[C@H](Cc2ccccc2)N(C)C(=O)[C@H](CC(=O)O)NC(=O)[C@H](CCCNC(=N)N)NC(=O)[C@H](Cc2ccc(-c3ccccc3)cc2)NC(=O)[C@H](C(C)C)NC(=O)[C@H](Cc2c[nH]c3ccccc23)NC(=O)[C@H](CC(=O)O)NC(=O)[C@H](Cc2ccc(O)cc2)NC(=O)[C@H](Cc2ccccc2)NC(=O)CSC[C@@H](C(=O)NCC(N)=O)NC(=O)[C@H](CO)NC(=O)[C@H](C(C)C)NC1=O [Example 1227] ({CH2CO}-FYDWV[Bip]RD[NMeF]V[Nle]VSCG-NH2; thioether N-14) — 2.7-fold higher, 650 nM
- CC(C)C[C@@H]1NC(=O)[C@H](CCCNC(=N)N)NC(=O)[C@H](Cc2ccccc2)N(C)C(=O)[C@H](C)N(C)C(=O)[C@H](CCCNC(=N)N)NC(=O)[C@H](Cc2ccc(-c3ccccc3)cc2)NC(=O)[C@H](C(C)C)NC(=O)[C@H](Cc2c[nH]c3ccccc23)NC(=O)[C@H](CC(=O)O)NC(=O)[C@H](Cc2ccc(O)cc2)NC(=O)[C@H](CN)NC(=O)CSC[C@@H](C(=O)NCC(N)=O)NC(=O)[C@H](CO)NC(=O)[C@H](C(C)C)NC1=O [Example 1264] ({CH2CO}-[Dap]YDWV[Bip]R[NMeA][NMeF]RLVSCG-NH2; thioether N-14) — 1.5-fold lower, 160 nM
- CCCCN1CC(=O)N[C@@H](CCN)C(=O)N[C@@H](CC2CCCCC2)C(=O)N[C@@H](C(C)C)C(=O)N[C@@H](CO)C(=O)N[C@H](C(=O)N[C@@H](CCN)C(N)=O)CSCC(=O)N[C@@H](Cc2ccncc2)C(=O)N[C@@H](Cc2ccc(OCC(=O)O)cc2)C(=O)N[C@@H](CC(=O)O)C(=O)N[C@@H](Cc2cccc(C)c2)C(=O)N[C@@H](Cc2ccc(OCC(=O)O)cc2)C(=O)N[C@@H](Cc2ccc(-c3ccccc3)cc2)C(=O)N[C@@H](Cc2ccc(OCC(=O)O)cc2)C(=O)N(C)[C@@H](C)C1=O [Example 1187] ({CH2CO}-[4Pal]Y(Carboxymethyl)D[Phe(3-Me)]Y(Carboxymethyl)[Bip]Y(Carboxymethyl)[NMeA][NBuGly][Dab][Cha]VSC[Dab]-NH2; thioether N-14) — within 1.5-fold, 290 nM
- CC(C)C[C@@H]1NC(=O)[C@H](CCCNC(=N)N)NC(=O)[C@H](Cc2ccccc2)N(C)C(=O)[C@H](C)N(C)C(=O)[C@H](CCCNC(=N)N)NC(=O)[C@H](Cc2ccc(-c3ccccc3)cc2)NC(=O)[C@H](C(C)C)NC(=O)[C@H](Cc2c[nH]c3ccccc23)NC(=O)[C@H](CC(=O)O)NC(=O)[C@H](Cc2ccc(O)cc2)NC(=O)[C@H](CCC(N)=O)NC(=O)CSC[C@@H](C(=O)NCC(N)=O)NC(=O)[C@H]([C@@H](C)O)NC(=O)[C@H](C(C)C)NC1=O [Example 1311] ({CH2CO}-QYDWV[Bip]R[NMeA][NMeF]RLVTCG-NH2; thioether N-14) — 3.1-fold higher, 750 nM
- CCC[C@H](NC(=O)[C@@H]1CSCC(=O)N[C@@H](Cc2ccccc2)C(=O)N[C@@H](Cc2ccc(O)cc2)C(=O)N[C@@H](CC(=O)O)C(=O)N[C@@H](Cc2c[nH]c3ccccc23)C(=O)N[C@@H](C(C)C)C(=O)N[C@@H](Cc2ccc(-c3ccccc3)cc2)C(=O)N[C@@H](CCCNC(=N)N)C(=O)N(C)[C@@H](C)C(=O)N(C)[C@@H](Cc2ccccc2)C(=O)N[C@@H](CCCNC(=N)N)C(=O)N[C@@H](CC(C)C)C(=O)N[C@@H](C(C)C)C(=O)N[C@@H](CO)C(=O)N1)C(N)=O [Example 1329] ({CH2CO}-FYDWV[Bip]R[NMeA][NMeF]RLVSC[Nva]-NH2; thioether N-14) — within 1.5-fold, 260 nM
